From the NIST ThermoML archive (doi:10.1016/j.jct.2005.06.017)

Assay: mn = molality of the nth substance listed, in mol/kg
Conditions: 350 kPa, Liquid, Extra sensitive DSC

NCC(=O)O [2-aminoacetic acid] + O
apparent molar heat capacity [J/K/mol]
Conditions | m1 = 0.015 | m1 = 0.03 | m1 = 0.0503 | m1 = 0.0804 | m1 = 0.125 | m1 = 0.2493 | m1 = 0.5056
278.15 K | 8 | – | – | – | – | – | 4.4
283.15 K | 25 | 1 | – | 12.3 | 10.3 | 12.4 | 18.7
288.15 K | 38 | 14 | 11 | 25.5 | 23.6 | 25.3 | 30.5
293.15 K | 50 | 25 | 24 | 36.5 | 34.1 | 35.4 | 40.4
298.15 K | 59 | 33 | 34.8 | 45.4 | 42.9 | 44 | 48.3
303.15 K | 67 | 41 | 43.7 | 52.8 | 50.1 | 51.1 | 55.2
308.15 K | 73 | 48 | 51 | 59.1 | 55.8 | 57 | 60.9
313.15 K | 78 | 54 | 57.3 | 64.5 | 61.3 | 62.4 | 66
318.15 K | 83 | 59 | 62.2 | 68.8 | 65.7 | 66.8 | 70.2
323.15 K | 86 | 63 | 66.8 | 72.7 | 69.3 | 70.6 | 73.9
328.15 K | 90 | 67 | 70.8 | 76 | 72.6 | 73.8 | 77.1
333.15 K | 92 | 70 | 74.5 | 79 | 75.4 | 76.7 | 80
338.15 K | 95 | 73 | 78 | 81.6 | 77.9 | 79.2 | 82.5
343.15 K | 97 | 75 | 80.6 | 83.6 | 80 | 81.3 | 84.6
348.15 K | 99 | 77 | 83.1 | 85.6 | 81.8 | 83.1 | 86.4
353.15 K | 101 | 79 | 85.3 | 87.3 | 83.4 | 84.8 | 88.1
358.15 K | 102 | 81 | 87.1 | 88.9 | 84.8 | 86.2 | 89.5
363.15 K | 103 | 82 | 88.9 | 90.2 | 86 | 87.3 | 90.7
368.15 K | 104 | 83 | 90.2 | 91 | 86.9 | 88.3 | 91.6
373.15 K | 104 | 83 | 91.1 | 91.7 | 87.5 | 89 | 92.4
378.15 K | 104 | 83 | 92.1 | 92.3 | 87.9 | 89.4 | 92.9
383.15 K | 103.9 | 84 | 93.3 | 92.9 | 88.2 | 89.9 | 93.3
388.15 K | 103.5 | 84 | 94.5 | 93.1 | 88.2 | 90 | 93.6
393.15 K | 101.4 | 84 | 95.6 | 92.9 | 87.7 | 89.7 | 93.6
